The source made the active and inactive calls. The calls are words filed in the database; no cut-off is given here.
What was measured:
[1] = Induction of membrane disruption using DMPG lipid vesicles at 187.5 uM; type: functional
[2] = Induction of membrane disruption using DMPE lipid vesicles at 187.5 uM; type: functional
[3] = Induction of membrane disruption using DMPS lipid vesicles at 187.5 uM; type: functional
[4] = Induction of membrane disruption using DMPC lipid vesicles at 187.5 uM; type: functional
[5] = Antiproliferative activity against human IN1528 cells after 72 hrs by SRB method; type: functional, cell-based; conditions: IN1528, 72 h
[6] = Antiproliferative activity against human IN1760 cells after 72 hrs by SRB method; type: functional, cell-based; conditions: IN1760, 72 h
[7] = Antiproliferative activity against human IN1472 cells after 72 hrs by SRB method; type: functional, cell-based; conditions: IN1472, 72 h
[8] = Antiproliferative activity against human U251MG cells after 72 hrs by SRB method; type: functional, cell-based; conditions: U-251, 72 h
[9] = tested on: IN1528; assay: Induction of membrane disruption in human IN1528 cells assessed as dye uptake at 200 to 500 uM by trypan blue exclusion assay; type: functional, cell-based
[10] = tested on: IN1760; assay: Induction of membrane disruption in human IN1760 cells assessed as dye uptake at 200 to 500 uM by trypan blue exclusion assay; type: functional, cell-based
[11] = tested on: IN1472; assay: Induction of membrane disruption in human IN1472 cells assessed as dye uptake at 200 to 500 uM by trypan blue exclusion assay; type: functional, cell-based
[12] = tested on: U-251; assay: Induction of membrane disruption in human U251MG cells assessed as dye uptake at 200 to 500 uM by trypan blue exclusion assay; type: functional, cell-based
[13] = tested on: IN1528; assay: Induction of membrane disruption in human IN1528 cells assessed as cell structure disruption at 1000 uM by trypan blue exclusion assay; type: functional, cell-based
[14] = tested on: IN1760; assay: Induction of membrane disruption in human IN1760 cells assessed as cell structure disruption at 1000 uM by trypan blue exclusion assay; type: functional, cell-based
[15] = tested on: IN1472; assay: Induction of membrane disruption in human IN1472 cells assessed as cell structure disruption at 1000 uM by trypan blue exclusion assay; type: functional, cell-based
[16] = tested on: U-251; assay: Induction of membrane disruption in human U251MG cells assessed as cell structure disruption at 1000 uM by trypan blue exclusion assay; type: functional, cell-based

CCCCCCCCc1ccc(C(=O)N(C)c2ccc(CCCCCCCC)cc2)cc1
Activity [1]: 16.6%
Activity [2]: 34.7%
Activity [3]: 27.2%
Activity [4]: 27.3%

CN(C(=O)c1ccncc1)c1ccncc1
Activity [1]: 30%
Activity [2]: 34.9%
Activity [3]: 23.3%
Activity [4]: 34.1%

CCCCCCCC[n+]1ccc(C(=O)N(C)c2cc[n+](CCCCCCCC)cc2)cc1
EC50 [5]: 9.8 µM
EC50 [6]: 19.5 µM
EC50 [7]: 78 µM
EC50 [8]: 312 µM
Activity [9]: Active
Activity [10]: Active
Activity [11]: Active
Activity [12]: Active
Activity [13]: Active
Activity [14]: Active
Activity [15]: Active
Activity [16]: Active
Activity [1]: 44.2%
Activity [2]: 77.7%
Activity [3]: 64.6%
Activity [4]: 38.8%

Source: ChEMBL document CHEMBL3351806, “Development of a novel, multifunctional, membrane-interactive pyridinium salt with potent anticancer activity” (Bioorg Med Chem Lett, 2014)
